Data as given in US20150344535A1, “NEUROTROPHIN-TYROSINE KINASE RECEPTOR SIGNALING” (THE UNIVERSITY OF QUEENSLAND, priority 2012, published 2015).

Legend:
PC12 cells = assay: NGF-FITC binding by flow cytometry, PC12 cells; details: for % of cell population with FITC above background / Maximal fluorescence per cell of the population / Mean fluorescence per FITC-positive cell / Median population fluorescence: NGF-FITC
Experimental: The NGF was conjugated to FITC by standard methods and detailed flow cytometry acquisition and analysis. For NGF-FITC conjugation 400 μg βNGF in 200 μl pH 8.5 NaHCO3 buffer was mixed with 5-10 μl of 10 mg/ml FITC in 100 μl DMSO for 10 hours at 4° C. on an orbital shaker set to 100 rpm. The excess FITC was removed by dialysis against 3 changes of 5 L of 10 mM Tris, 150 mM NaCl, 0.2% acetic acid, pH 8.2 for 24 hours at 4° C. Conjugate F/P characterization was determined by measuring absorbance at 280 nm and 495 nm according to manufacturer's instructions. Biological activity of the NGF-FITC conjugate was tested by performing PC12 cell neurite outgrowth assays unlabelled NGF, and comparing the levels of neuritogenesis. NGF-FITC conjugates were used within 4 weeks of synthesis.
For the flow cytometry NGF binding assays, fluorescence cell parameters of at least 20,000 events for PC12 cells and 100,000 events for HEK293 cells were acquired by flow cytometry list mode and measurements were performed on a single cell basis (with compensation for double event counting). Dead cells and debris were gated out of the analysis on the basis of forward scatter fluorescence, and mean, median and maximal fluorescence values of the gated cell populations were analysed using FACS Diva Software (Becton-Dickinson Biosciences) and FACS Express Software (Becton-Dickinson Biosciences).
Background fluorescence of HEK293 cells was non-transfected cells (±c29 or scrambled peptide treatment) treated with 26 nM NGF-FITC. For PC12 cells, the control population was cells that had not been treated with NGF-FITC. Analysis of real-time NGF-FITC receptor binding experiments was performed on 550,000-600,000 cells at 4° C. in serum free NB medium and binding kinetics were calculated from raw data files compressed to 50,000 binding events using FlowJo and MatLab Software. Data was plotted with the use of GraphPad Prism.
Only NGF-FITC preparations that promoted equivalent neurite outgrowth of PC12 cells to that of unlabelled NGF were used in binding experiments. To investigate NGF binding, PC12 or transfected HEK293 cells were serum starved for 4 hours, harvested, washed with Dulbecco's Modified Eagle Medium (DMEM), and counted. When used, c29 or scrambled peptide were added to cultures for the third hour of the serum starvation procedure. 1×10^7 cells/ml suspended in 500 μl of serum-free DMEM were incubated with 26 nM NGF-FITC on ice for 60 minutes before analysis. For binding competition assays, following 1 hour in NGF-FITC, cells were washed with ice-cold PBS containing 0.1% normal bovine serum and incubated on ice with unlabeled NGF at concentrations ranging from 100 pM to 10 μM for 30 minutes, then washed twice in PBS before being analysed on a BD Flow Cytometer FACS Scan (Becton-Dickinson).
First, to determine the concentration of c29 required to modulate NGF binding, c29 levels were titrated with a fixed concentration of NGF-FITC.

pErk1/2 and pAkt = assay: Western blot of pErk1/2 and pAkt in PC12 cell lysates; assay type: cell-based; details: 24 hours
Experimental: In biochemical experiments, PC12 and HEK293 cells were lysed for 20 minutes on ice in lysis buffer as described by (Ceni et al., 2010). Briefly, the lysis buffer contained 10 mM Tris-HCl, 150 mM NaCl, 2 mM EDTA, 1% (v/v) NP-40, 1% (v/v) TX-100, 10% Glycerol, 1 mM PMSF, 1 mM Sodium Orthovanadate, 1 μM BB94, 1% (v/v) Roche protease inhibitor cocktail and pH 8.0 (Ceni et al., 2010).
Immunoprecipitation was performed by the addition of 75 μl (1:2) protein-G sepharose: PBS and incubation end-over-end for 16 hours at 4° C. The immunoprecipitate was washed 4 times with 1 ml of PBS then eluted in 60 μl 2×LDS sample buffer. For immunoblotting, samples were boiled for 5 minutes, separated by SDS-PAGE and transferred onto nitrocellulose membranes, then western blotted using standard protocols (see Example 1 for antibodies used).
The observed functional effects on neurite outgrowth and survival were next correlated with enhanced activation of signal transduction pathways that mediate the trophic effects of TrkA. Lysates of cells treated for 24 hours with NGF alone or in combination with c29 or scrambled peptide were immunoblotted for pErk1/2 (neurite outgrowth), and the serine/threonine protein kinase Akt (survival). […] Total levels of Erk1/2 or Akt were unaffected by any treatment (FIG. 6 A, B).

[1] = 10 ng/ml NGF, relative to 10 ng/ml NGF and scrambled peptide

Question: Which “% of cell population with FITC above background” value (PC12 cells; c.f. PC12) does the source give for “KRWNSCKQNKQGANSRPVNQTPPPEGEKL (c29- Fragment of p75ICD) [29 amino acid peptide of the p75NTR juxtamembrane Chopper domain; delivered to cells linked to PTD4 or disulfide-linked carrier]” here?
Answer: 115.7 ± 19.7%

Question: What about the “Maximal fluorescence per cell of the population” value (PC12 cells; c.f. PC12) of the same sequence?
Answer: 123.6 ± 17.3%

Question: And the “Mean fluorescence per FITC-positive cell” value (PC12 cells; c.f. PC12)?
Answer: 126.3 ± 4.8%

Question: And the Median population fluorescence (PC12 cells; c.f. PC12)?
Answer: 127.4 ± 8.1%

Question: And the “% of cell population with FITC above background” value (PC12 cells; c.f. PC12 + SC)?
Answer: 115.3 ± 13.4%

Question: And the “Maximal fluorescence per cell of the population” value (PC12 cells; c.f. PC12 + SC)?
Answer: 123.1 ± 5.2%

Question: And the “Mean fluorescence per FITC-positive cell” value (PC12 cells; c.f. PC12 + SC)?
Answer: 121.4 ± 5.5%

Question: What about the Median population fluorescence (PC12 cells; c.f. PC12 + SC) of the same sequence?
Answer: 122.5 ± 8.4%

Question: And the “all measured fluorescence parameters of the FITC-positive population” value (PC12 cells; PC12 cells, compared to control or scrambled peptide-treated cells)?
Answer: increased

Question: And the “c29 concentration at which an increase in median fluorescence was observed” value (PC12 cells; fixed concentration of NGF-FITC, FIG. 10A)?
Answer: 1 pM

Question: What about the “increase in pAkt” value (pErk1/2 and pAkt; [1]) of the same sequence?
Answer: 2 fold

Question: What about the “increase in pErk1/2” value (pErk1/2 and pAkt; [1]) of the same sequence?
Answer: 2 fold

Question: What about the pAkt signalling (pErk1/2 and pAkt; absence of NGF) of the same sequence?
Answer: no effect

Question: What about the pErk1/2 signalling (pErk1/2 and pAkt; absence of NGF) of the same sequence?
Answer: no effect
